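Cultured in 96-well plates, cells were exposed to test compound for 48 hours across five concentrations. GI50: concentration for 50% inhibition of growth.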 Calls of active or inactive are those of the source. No stated cut-off is given here; in the data, active = GI50 up to about 1.1 µM and inactive = higher.
Assays:
Experiment in all cases: growth of human tumour cells (NCI), 48 h
[1] = tested on: HOP-62
[2] = tested on: LXFL 529
[3] = tested on: TK-10
[4] = tested on: NCI-H460
[5] = tested on: SF-268
[6] = tested on: KM-20L2
[7] = tested on: SNB-75
[8] = tested on: SK-MEL-5
[9] = tested on: HT-29
[10] = tested on: SK-OV-3
[11] = tested on: HL-60
[12] = tested on: 786-0
[13] = tested on: SN12C
[14] = tested on: CAKI-1
[15] = tested on: COLO 205
[16] = tested on: A498

Measured: GI50

Cc1ccc(NCC(=O)N2CC(=O)Nc3ccccc32)cc1
inactive: [1] > 100 µM | [2] > 100 µM | [3] > 100 µM | [4] > 100 µM | [5] > 100 µM | [6] > 100 µM | [7] > 100 µM | [8] > 100 µM | [9] > 100 µM | [10] > 100 µM | [11] > 100 µM | [12] > 100 µM | [13] > 100 µM | [14] > 100 µM | [15] > 100 µM

Cc1ccc(C2CC(c3ccco3)=NN2c2ccccc2)o1 (stereo not drawn)
inactive: [1] > 100 µM | [2] > 100 µM | [3] > 100 µM | [4] > 100 µM | [5] > 100 µM | [6] > 100 µM | [7] > 100 µM | [8] > 100 µM | [9] > 100 µM | [11] > 100 µM | [12] > 100 µM | [13] > 100 µM | [15] > 100 µM

Cn1c2ccccc2c(=O)c2c([N+](=O)[O-])ccc(NCCN)c21
inactive: [1] 14 µM | [2] 8.63 µM | [3] 14.7 µM | [4] 6.92 µM | [5] 11.3 µM | [6] 10.1 µM | [7] 12.1 µM | [8] 13.2 µM | [9] 4.47 µM | [10] 15.7 µM | [16] 16.5 µM | [11] 4.17 µM | [12] 6.93 µM | [13] 5.14 µM | [14] 11.9 µM | [15] 5.36 µM

Fc1nc(F)nc(-c2c3ccccc3c3n2CCS3)n1
inactive: [1] 39.7 µM | [2] 58.1 µM | [3] > 10 µM | [4] 61.4 µM | [5] 70.5 µM | [6] > 100 µM | [7] 22.8 µM | [8] 50.1 µM | [9] > 100 µM | [10] > 100 µM | [16] 30.8 µM | [11] 46.8 µM | [12] 78.5 µM | [13] > 100 µM | [14] > 100 µM | [15] > 100 µM

C/N=C(\NC(=S)N(C)C)N(C)C
inactive: [1] > 100 µM | [2] > 100 µM | [3] > 100 µM | [4] > 100 µM | [5] > 100 µM | [6] > 100 µM | [7] > 100 µM | [8] > 100 µM | [9] > 100 µM | [10] > 100 µM | [16] > 100 µM | [11] > 100 µM | [12] > 100 µM | [13] > 100 µM | [14] > 100 µM

O=C1/C(=C/c2ccc(C(=O)O)cc2)CNC/C1=C\c1ccc(C(=O)O)cc1
inactive: [1] > 100 µM | [2] > 100 µM | [3] > 100 µM | [4] > 100 µM | [5] > 100 µM | [6] > 100 µM | [7] > 100 µM | [8] > 100 µM | [9] > 100 µM | [10] > 100 µM | [16] > 100 µM | [11] > 100 µM | [12] > 100 µM | [13] > 100 µM | [15] > 100 µM

COC1=CC(=O)C2C(C1=O)C(c1ccc(OC)c(OC)c1)[C@H]2C (stereo partly drawn)
inactive: [1] > 100 µM | [2] 17.3 µM | [3] 19 µM | [4] > 100 µM | [5] > 100 µM | [6] 68.9 µM | [7] > 100 µM | [8] 22.4 µM | [9] 31.8 µM | [10] > 100 µM | [16] > 100 µM | [11] 20.5 µM | [12] 18 µM | [14] 11.5 µM | [15] 19.1 µM

C1=CC=C2NCCCCCCC/N=C3/C=CC=CC=C3NCCCCCCC/N=C\2C=C1
inactive: [1] 10 µM | [2] > 100 µM | [4] 25.4 µM | [5] > 100 µM | [6] 30.5 µM | [7] 25.8 µM | [9] 37.5 µM | [10] 10 µM | [11] 43.5 µM | [12] > 100 µM | [13] > 100 µM | [14] > 100 µM | [15] > 100 µM

CCCCN(CCCC)CCCCNc1c(C)cnc2cc(Cl)ccc12
inactive: [1] 21.3 µM | [2] 31 µM | [3] 34.4 µM | [4] 30.9 µM | [5] 21.6 µM | [6] 11.3 µM | [9] 14.9 µM | [16] 23.6 µM | [12] 14 µM | [13] 30.6 µM | [15] 23.3 µM

N#CCCN(CCC#N)c1ccc(/C=C2\N=C(CN3C(=O)c4ccccc4C3=O)OC2=O)cc1
inactive: [1] > 100 µM | [2] > 100 µM | [4] > 100 µM | [5] > 100 µM | [6] > 100 µM | [7] > 100 µM | [8] > 100 µM | [9] > 100 µM | [10] > 100 µM | [16] > 100 µM | [11] > 100 µM | [12] > 100 µM | [13] > 100 µM | [14] > 100 µM

From ChEMBL document CHEMBL1201862, “PubChem BioAssay data set” (2004)
